This is an account of results in ChEMBL document CHEMBL1149764, “Synthesis, structure and biological activity of pseudopeptidic macrolides based on an amino alcohol” (Eur J Med Chem, 2008).

In one data set the test system is Aspergillus niger. The data set is described as follows: Antifungal activity against Aspergillus niger ATCC 16404 after 48 hrs standard broth microdilution method. It counts as functional. The following applies: ATCC 16404, 48 h. On the technique in general: In broth dilution the organism is exposed to a series of concentrations in liquid medium.
Another data set relates to Cryptococcus neoformans. The data set is described as follows: Antifungal activity against Cryptococcus neoformans SYM 523 after 48 hrs standard broth microdilution method. It counts as functional.
The next data set relates to Aspergillus flavus. The data set is described as follows: Antifungal activity against Aspergillus flavus SYM 223 after 48 hrs standard broth microdilution method. It counts as functional.
A short description of data set [1]: Toxicity against human erythrocytes assessed as hemolytic activity at 1000 ug/ml. It counts as cell-based, Erythrocyte. The following applies: read-out: Activity.
In another data set the test system is Saccharomyces cerevisiae. The data set is described as follows: Antifungal activity against Saccharomyces cerevisiae SYM 3513 after 48 hrs standard broth microdilution method. It counts as functional.
Another data set deals with Escherichia coli. Kind of data set: Antibacterial activity against Escherichia coli ATCC 25922 after 24 hrs by twofold dilution method. As to conditions: ATCC 25922, 24 h. It counts as functional.
Data set [2] is described as follows: Antifungal activity against […] glutinis SYM 2209 after 48 hrs standard broth microdilution method. It counts as functional.
Data set [3] is described as follows: Toxicity against human erythrocytes assessed as hemolytic activity at 500 ug/ml. It counts as cell-based, Erythrocyte. As to conditions: read-out: Activity.
A short description of data set [4]: Toxicity against human erythrocytes assessed as hemolytic activity at 4000 ug/ml. It counts as cell-based, Erythrocyte. The following applies: read-out: Activity.
Data set [5] can be described thus: Antifungal activity against […] nigricans SYM 2417 after 48 hrs standard broth microdilution method. It counts as functional.
A short description of data set [6]: Toxicity against human erythrocytes assessed as hemolytic activity at 2000 ug/ml. It counts as cell-based, Erythrocyte. The following applies: read-out: Activity.
The test system of the next data set is Pseudomonas aeruginosa. Kind of data set: Antibacterial activity against Pseudomonas aeruginosa ATCC 27853 after 24 hrs by twofold dilution method. It counts as functional. The following applies: ATCC 27853, 24 h.
The nature of data set [7]: Toxicity against human erythrocytes assessed as hemolytic activity at 250 ug/ml. It counts as cell-based, Erythrocyte. As to conditions: read-out: Activity.
The next data set has as its system Staphylococcus aureus. The data set is described as follows: Antibacterial activity against Staphylococcus aureus ATCC 25923 after 24 hrs by twofold dilution method. It counts as functional. The following applies: ATCC 25923, 24 h.
For the next data set, the system named is Bacillus subtilis. The data set is described as follows: Antibacterial activity against Bacillus subtilis ATCC 6633 after 24 hrs by twofold dilution method. It counts as functional. As to conditions: ATCC 6633, 24 h.
The test system of the next data set is Candida albicans. Kind of data set: Antifungal activity against Candida albicans ATCC 10231 after 48 hrs standard broth microdilution method. It counts as functional. The following applies: ATCC 10231, 48 h.

Each structure is given as a SMILES string. In brackets after ≈: the same amount, converted by molar mass.

As a reminder, the MIC is the least concentration at which growth counts as inhibited. Consider `O=C1O[C@H]2Cc3ccccc3[C@H]2NC(=O)c2cccc(c2)C(=O)N[C@@H]2c3ccccc3C[C@@H]2OC(=O)C2=CC=C1S2`, for which the MIC in the data set on Aspergillus niger was 32 µg/mL (≈ 56.7 µM); in the data set with Cryptococcus neoformans, 4 µg/mL (≈ 7.08 µM); against Aspergillus flavus, 8 µg/mL (≈ 14.2 µM); against Saccharomyces cerevisiae it was 16 µg/mL (≈ 28.3 µM); against Escherichia coli it was 16 µg/mL (≈ 28.3 µM); in [2], 4 µg/mL (≈ 7.08 µM). For the same compound, the MIC is 1 µg/mL (≈ 1.77 µM) in data set [5]; above 64 µg/mL in the data set on Pseudomonas aeruginosa; 16 µg/mL (≈ 28.3 µM) with Staphylococcus aureus; above 64 µg/mL against Bacillus subtilis; 1 µg/mL (≈ 1.77 µM) against Candida albicans. Also, the hemolysis at 1000 ug/ml in [1] is 1%. Also, the hemolysis at 500 ug/ml in [3] is 0%. Moreover, in data set [4], the hemolysis at 4000 ug/ml came out at 9%. Further, the hemolysis at 2000 ug/ml in [6] amounted to 4%. Moreover, the hemolysis at 250 ug/ml in data set [7] was 0%.
For `O=C1O[C@H]2Cc3ccccc3[C@H]2NC(=O)c2cccc(n2)C(=O)N[C@@H]2c3ccccc3C[C@@H]2OC(=O)c2cccc1c2`, the minimal inhibitory concentration (MIC) in the data set on Aspergillus niger was 4 µg/mL (≈ 7.15 µM); against Cryptococcus neoformans, 8 µg/mL (≈ 14.3 µM); with Aspergillus flavus, 8 µg/mL (≈ 14.3 µM); against Saccharomyces cerevisiae, 16 µg/mL (≈ 28.6 µM); in the data set on Escherichia coli, above 64 µg/mL; in data set [2] it was 8 µg/mL (≈ 14.3 µM). Moreover, the MIC in data set [5] amounted to 4 µg/mL (≈ 7.15 µM); with Pseudomonas aeruginosa, 32 µg/mL (≈ 57.2 µM); in the data set with Staphylococcus aureus it was 32 µg/mL (≈ 57.2 µM); against Bacillus subtilis it was 4 µg/mL (≈ 7.15 µM); with Candida albicans, 4 µg/mL (≈ 7.15 µM). Also, in data set [1], the hemolysis at 1000 ug/ml worked out at 3%. Also, in [3], the hemolysis at 500 ug/ml was determined as 0%. Moreover, in data set [4], the hemolysis at 4000 ug/ml stood at 9%. Besides, the hemolysis at 2000 ug/ml in data set [6] came out at 6%. In data set [7], the hemolysis at 250 ug/ml stood at 0%.
For `OC(Cn1cncn1)(Cn1cncn1)c1ccc(F)cc1F` [FLUCONAZOLE], the MIC against Aspergillus niger is 64 µg/mL (≈ 209 µM); with Cryptococcus neoformans, 32 µg/mL (≈ 104 µM); against Aspergillus flavus, 64 µg/mL (≈ 209 µM); in the data set with Saccharomyces cerevisiae it was 32 µg/mL (≈ 104 µM); in [2], above 64 µg/mL; against Candida albicans, 16 µg/mL (≈ 52.2 µM).
On to `O=C1N[C@@H]2c3ccccc3C[C@@H]2OC(=O)c2cccc(c2)C(=O)O[C@H]2Cc3ccccc3[C@H]2NC(=O)c2cccc1c2`, for which the minimal inhibitory concentration (MIC) with Aspergillus niger amounted to 8 µg/mL (≈ 14.3 µM); in the data set on Cryptococcus neoformans, 4 µg/mL (≈ 7.16 µM); with Aspergillus flavus it was 2 µg/mL (≈ 3.58 µM); in the data set with Saccharomyces cerevisiae it was 32 µg/mL (≈ 57.3 µM); in the data set with Escherichia coli it was 16 µg/mL (≈ 28.6 µM); in data set [2], 4 µg/mL (≈ 7.16 µM). Besides, the minimum inhibitory concentration (MIC) in data set [5] is 1 µg/mL (≈ 1.79 µM); with Pseudomonas aeruginosa, above 64 µg/mL; with Staphylococcus aureus, 4 µg/mL (≈ 7.16 µM); in the data set on Bacillus subtilis it was 8 µg/mL (≈ 14.3 µM); with Candida albicans, 1 µg/mL (≈ 1.79 µM). In addition, in data set [1], the hemolysis at 1000 ug/ml stood at 0%. For the same compound, the hemolysis at 500 ug/ml in [3] came to 0%. Moreover, the hemolysis at 4000 ug/ml in data set [4] worked out at 2%. In addition, the hemolysis at 2000 ug/ml in data set [6] turned out to be 0.5%. Moreover, in [7], the hemolysis at 250 ug/ml amounted to 0%.
For the compound `O=C1N[C@@H]2c3ccccc3C[C@@H]2OC(=O)c2cccc(n2)C(=O)O[C@H]2Cc3ccccc3[C@H]2NC(=O)c2cccc1c2`, the MIC was 8 µg/mL (≈ 14.3 µM) against Aspergillus niger; 16 µg/mL (≈ 28.6 µM) against Cryptococcus neoformans; 2 µg/mL (≈ 3.57 µM) against Aspergillus flavus; 32 µg/mL (≈ 57.2 µM) in the data set on Saccharomyces cerevisiae; 32 µg/mL (≈ 57.2 µM) in the data set on Escherichia coli; 8 µg/mL (≈ 14.3 µM) in data set [2]. Also, the MIC in data set [5] is 4 µg/mL (≈ 7.15 µM); with Pseudomonas aeruginosa, above 64 µg/mL; in the data set with Staphylococcus aureus it was 16 µg/mL (≈ 28.6 µM); in the data set with Bacillus subtilis, above 64 µg/mL; against Candida albicans, 4 µg/mL (≈ 7.15 µM). In addition, in data set [1], the hemolysis at 1000 ug/ml is 2%. In data set [3], the hemolysis at 500 ug/ml is 0%. For the same compound, the hemolysis at 4000 ug/ml in data set [4] was determined as 7%. The hemolysis at 2000 ug/ml in data set [6] was 4%. Moreover, in [7], the hemolysis at 250 ug/ml was 0%.
For the compound `O=C1N[C@@H]2c3ccccc3C[C@@H]2OC(=O)c2cccc(n2)C(=O)O[C@H]2Cc3ccccc3[C@H]2NC(=O)c2cccc1n2`, the minimal inhibitory concentration (MIC) against Aspergillus niger is 4 µg/mL (≈ 7.14 µM); in the data set on Cryptococcus neoformans, 16 µg/mL (≈ 28.5 µM); in the data set with Aspergillus flavus, above 64 µg/mL; in the data set with Saccharomyces cerevisiae it was 64 µg/mL (≈ 114 µM); in the data set with Escherichia coli, 32 µg/mL (≈ 57.1 µM); in data set [2], 16 µg/mL (≈ 28.5 µM). For the same compound, the minimum inhibitory concentration (MIC) in [5] was 8 µg/mL (≈ 14.3 µM); in the data set on Pseudomonas aeruginosa it was above 64 µg/mL; with Staphylococcus aureus, 4 µg/mL (≈ 7.14 µM); with Bacillus subtilis it was 8 µg/mL (≈ 14.3 µM); against Candida albicans, 1 µg/mL (≈ 1.78 µM). In data set [1], the hemolysis at 1000 ug/ml is 0%. The hemolysis at 500 ug/ml in data set [3] was 0%. The hemolysis at 4000 ug/ml in data set [4] came to 2%. Further, in data set [6], the hemolysis at 2000 ug/ml was determined as 1%. In addition, the hemolysis at 250 ug/ml in data set [7] was determined as 0%.
`O=C1O[C@H]2Cc3ccccc3[C@H]2NC(=O)c2cccc(n2)C(=O)N[C@@H]2c3ccccc3C[C@@H]2OC(=O)C2=CC=C1S2`: the MIC is 4 µg/mL (≈ 7.07 µM) in the data set with Aspergillus niger; 4 µg/mL (≈ 7.07 µM) in the data set with Cryptococcus neoformans; 1 µg/mL (≈ 1.77 µM) against Aspergillus flavus; 8 µg/mL (≈ 14.1 µM) in the data set on Saccharomyces cerevisiae; above 64 µg/mL against Escherichia coli; 4 µg/mL (≈ 7.07 µM) in data set [2]. Moreover, the minimum inhibitory concentration (MIC) was 1 µg/mL (≈ 1.77 µM) in data set [5]; above 64 µg/mL against Pseudomonas aeruginosa; 8 µg/mL (≈ 14.1 µM) against Staphylococcus aureus; above 64 µg/mL against Bacillus subtilis; 1 µg/mL (≈ 1.77 µM) with Candida albicans. Besides, the hemolysis at 1000 ug/ml in [1] worked out at 4%. Moreover, the hemolysis at 500 ug/ml in data set [3] stood at 1%. Also, the hemolysis at 4000 ug/ml in data set [4] was 14%. In addition, in [6], the hemolysis at 2000 ug/ml was 6%. In addition, in [7], the hemolysis at 250 ug/ml was determined as 0.5%.
`O=C(N[C@H](CO)[C@H](O)c1ccc([N+](=O)[O-])cc1)C(Cl)Cl` [CHLORAMPHENICOL]: the minimal inhibitory concentration (MIC) came out at 8 µg/mL (≈ 24.8 µM) in the data set with Escherichia coli, 32 µg/mL (≈ 99 µM) in the data set on Pseudomonas aeruginosa, 4 µg/mL (≈ 12.4 µM) in the data set on Staphylococcus aureus and 8 µg/mL (≈ 24.8 µM) against Bacillus subtilis.
For the compound `C[C@@H]1[C@H](O)[C@@H](C)/C=C/C=C/C=C/C=C/C=C/C=C/C=C/[C@H](O[C@@H]2O[C@H](C)[C@@H](O)[C@H](N)[C@@H]2O)C[C@@H]2O[C@](O)(C[C@@H](O)C[C@@H](O)[C@H](O)CC[C@@H](O)C[C@@H](O)CC(=O)O[C@H]1C)C[C@H](O)[C@H]2C(=O)O` [AMPHOTERICIN B], the minimum inhibitory concentration (MIC) in the data set on Aspergillus niger worked out at 1 µg/mL (≈ 1.08 µM); against Aspergillus flavus it was 0.5 µg/mL (≈ 0.541 µM); against Saccharomyces cerevisiae it was 0.5 µg/mL (≈ 0.541 µM); in data set [2], 2 µg/mL (≈ 2.16 µM); in the data set with Candida albicans, 1 µg/mL (≈ 1.08 µM).
